Assay results: ChEMBL document CHEMBL1201862, “PubChem BioAssay data set” (2004)
Activity calls are given as the source filed them.

Assays:
[1] = target: ADP-ribosylation factor GTPase-activating protein 1 (Rattus norvegicus, UniProt Q62848); assay: Fluorescence polarization-based biochemical high throughput dose response screening assay to identify inhibitors of ADP-ribosylation factor GTPase activating protein 1 (ARFGAP1).; format: functional
[2] = target: Heat shock protein HSP 90-alpha (Homo sapiens, UniProt P07900); format: functional, organism-based
[3] = Shn3 3'UTR reporter inhibitors, dose response, cell-based, Clone20 osteoblasts, firefly luciferase, cherry-picked (AID 624132); format: functional;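 note: firefly luciferase luminescence from reporter carrying the Shn3 3'UTR in osteoblasts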
[4] = HepG2 cell cytotoxicity, dose response, cytotoxicity control for Shn3 inhibitor project, CellTiter-Glo, cherry-picked (AID 624134); format: functional, cell-based
[5] = control 3'UTR Renilla luciferase suppression, dose response, counter-screen for Shn3 inhibitor project, cell-based, Clone20-Shn3RL, cherry-picked (AID 624133); format: functional
[6] = Fluorescence-based cell-based high throughput dose response assay for inhibitors of the interaction of nucleotide-binding oligomerization domain containing 2 (NOD2) and the receptor-interacting serine-threonine kinase 2 (RIPK2).; format: functional; settings: Homo sapiens
[7] = target: Beta Lactamase (Pseudomonas aeruginosa, UniProt Q932Y6); assay: beta-lactamase reporter inhibitor potency, dose response, artefact control for NOD2-RIPK2 interaction inhibitor project, BLA reporter cells, FRET fluorescence (AID 651552); format: functional, cell-based
[8] = NIH-3T3 fibroblast cytotoxicity, dose response, cytotoxicity control, cell-based, fluorescence, Alamar Blue, secondary assay (AID 2327); format: functional;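 note: NIH-3T3 mouse fibroblasts cultured with fluconazole at 8 µg/mL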
[9] = cells; format: functional, cell-based
[10] = target: T1, Heat shock factor protein 1 (Mus musculus, UniProt P38532); assay: inhibition of MG132-induced HSE-luciferase signal, confirmation, cell-based, NIH3T3, luminescence, dose retest (AID 2382); format: functional;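 note: NIH3T3 fibroblasts with HSF1-driven luciferase reporter stressed by proteasome inhibitor MG132; luminescence from HSF1-driven luciferase expression after 8 hours of MG132 stress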
T1 sequence (P38532 whole entry): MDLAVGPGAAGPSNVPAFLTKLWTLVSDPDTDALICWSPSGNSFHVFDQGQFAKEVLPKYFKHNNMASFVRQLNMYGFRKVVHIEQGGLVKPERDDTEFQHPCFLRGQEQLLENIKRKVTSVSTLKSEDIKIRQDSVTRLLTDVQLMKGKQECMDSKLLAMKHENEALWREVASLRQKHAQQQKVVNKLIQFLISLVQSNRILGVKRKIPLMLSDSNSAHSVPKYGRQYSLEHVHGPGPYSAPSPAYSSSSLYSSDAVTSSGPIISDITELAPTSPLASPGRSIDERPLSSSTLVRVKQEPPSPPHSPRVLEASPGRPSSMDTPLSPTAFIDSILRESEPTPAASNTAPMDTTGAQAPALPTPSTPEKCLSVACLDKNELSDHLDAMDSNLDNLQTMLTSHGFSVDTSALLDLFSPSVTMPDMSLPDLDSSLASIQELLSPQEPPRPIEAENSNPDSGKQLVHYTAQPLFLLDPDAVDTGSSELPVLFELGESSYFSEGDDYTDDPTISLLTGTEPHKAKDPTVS

[11] = C. albicans growth with fluconazole, confirmation, fluorescence, retest (AID 2467); format: functional, cell-based
[12] = cells; format: functional, cell-based; remark: listed apart in the source
[13] = test system: INS1; assay: beta cell apoptosis inhibitors, cytokine rescue, dose response, luminescence, retest (AID 449756); format: functional, cell-based; settings: Rattus norvegicus;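 note: cell death triggered by IL-1 beta plus TNF-alpha plus IFN-gamma mixture; protective hits raise ATP signal compared with cytokine alone wells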
[14] = cytotoxicity in NIH3T3 fibroblasts, dose response, cytotoxicity control for HSP40 inhibitor project, cell-based, CellTiter-Glo luminescence, cherry-pick, set 2 (AID 624265); format: functional
[15] = microbe, parasite or virus in culture; format: functional; settings: Mycobacterium tuberculosis
[16] = target: T2, Sentrin-specific protease 1 (Homo sapiens, UniProt Q9P0U3); assay: potency of human SENP1 inhibitors, dose response, biochemical, kinetic FRET (AID 651697); format: functional; settings: read-out: IC50_Mean
[17] = target: T2, Sentrin-specific protease 1; assay: Dose response confirmation of small molecule inhibitors of the catalytic domain of the SUMO protease, SENP1 in a FRET assay.; format: functional; settings: read-out: IC50_Mean
[18] = HeLa cell cytotoxicity, dose response, cytotoxicity control for MgcRacGAP inhibitor project (AID 624300); format: functional
[19] = target: T3, Rac GTPase-activating protein 1 (Homo sapiens, UniProt Q9H0H5); assay: MgcRacGAP GTPase-activating activity inhibitors, confirmation, biochemical, ADP Hunter fluorescence, primary and confirmatory (AID 624330); format: functional
T3 sequence (Q9H0H5 whole entry): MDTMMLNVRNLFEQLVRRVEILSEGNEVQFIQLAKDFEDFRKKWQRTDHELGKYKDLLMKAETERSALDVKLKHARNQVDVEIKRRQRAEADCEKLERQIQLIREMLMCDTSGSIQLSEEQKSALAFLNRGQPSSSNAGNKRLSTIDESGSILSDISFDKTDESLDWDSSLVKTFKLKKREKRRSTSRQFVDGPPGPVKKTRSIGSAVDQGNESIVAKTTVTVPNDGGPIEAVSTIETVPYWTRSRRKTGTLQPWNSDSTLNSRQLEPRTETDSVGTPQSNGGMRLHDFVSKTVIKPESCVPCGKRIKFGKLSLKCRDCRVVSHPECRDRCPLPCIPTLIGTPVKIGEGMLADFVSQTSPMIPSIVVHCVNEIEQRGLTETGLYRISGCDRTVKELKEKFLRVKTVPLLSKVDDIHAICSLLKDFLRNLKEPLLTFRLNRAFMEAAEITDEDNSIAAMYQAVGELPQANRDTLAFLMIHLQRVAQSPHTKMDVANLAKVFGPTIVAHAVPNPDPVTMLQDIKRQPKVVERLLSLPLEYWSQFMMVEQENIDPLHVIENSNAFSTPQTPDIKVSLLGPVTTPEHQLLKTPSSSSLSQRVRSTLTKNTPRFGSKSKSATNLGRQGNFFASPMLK

[20] = target: T4, ATP-dependent translocase ABCB1 (Homo sapiens, UniProt P08183); assay: ABCG2 efflux pump inhibitor potency, dose response, Ig-MXP3 cells, JC-1, flow cytometry, set 2 (AID 504566); format: functional; settings: read-out: EC50_MICROM_;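 note: flow cytometry median green fluorescence of retained JC-1 dye; potency of efflux pump inhibition measured as rising substrate retention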
[21] = target: T4, ATP-dependent translocase ABCB1; assay: ABCB1 efflux inhibitor potency, dose response, Jurkat-DNR cells, JC-1, flow cytometry, set 2 (AID 504569); format: functional; settings: read-out: EC50_MICROM_;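 note: potency of pump inhibitors that raise cellular JC-1 green fluorescence up to the nicardipine level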
[22] = target: T5, Probable nicotinate-nucleotide adenylyltransferase (Staphylococcus aureus (strain N315), UniProt P65502); format: functional, Staphylococcus aureus subsp. aureus N315;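 for IC50 Mean: confirmatory dose-response retesting of NadD inhibitor hits first found in an ultra-high-throughput screen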
[23] = target: T5, Probable nicotinate-nucleotide adenylyltransferase; format: functional, Staphylococcus aureus subsp. aureus N315; settings: read-out: IC50_Mean
[24] = target: Mitogen-activated protein kinase 10 (Homo sapiens, UniProt P53779); assay: Dose response biochemical screening assay for inhibitors of c-Jun N-Terminal Kinase 3 (JNK3). [Related pubchem assays: 746 ]
[25] = target: Nuclear receptor subfamily 5 group A member 2 (Homo sapiens, UniProt O00482); format: functional, cell-based;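 note: HEK293T cells transfected with LRH-1 and a StAR promoter luciferase reporter; potency for inhibitors that lower LRH-1 driven reporter light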
[26] = target: Steroidogenic factor 1 (Homo sapiens, UniProt Q13285); assay: Counterscreen for inverse agonists of the liver receptor homolog-1 (LRH-1; NR5A2): Luminescence-based cell-based high throughput dose response assay to identify inverse agonists of the Steroidogenic Factor 1 Nuclear Receptor (SF1; NR5A1).; format: functional
[27] = StAR promoter reporter inhibition counter-screen, dose response, counter-screen for LRH-1 inverse agonist project, cell-based, luminescence, luciferase reporter (AID 651969); format: functional
[28] = target: T6, Corticotropin-releasing factor receptor 2/Corticotropin-releasing factor-binding protein (Homo sapiens, UniProt P24387+Q13324); assay: Dose Response confirmation of uHTS hits for small molecule antagonists of the CRF-binding protein and CRF-R2 receptor complex.; format: functional; settings: read-out: IC50_Mean
T6 sequence (Q13324 whole entry): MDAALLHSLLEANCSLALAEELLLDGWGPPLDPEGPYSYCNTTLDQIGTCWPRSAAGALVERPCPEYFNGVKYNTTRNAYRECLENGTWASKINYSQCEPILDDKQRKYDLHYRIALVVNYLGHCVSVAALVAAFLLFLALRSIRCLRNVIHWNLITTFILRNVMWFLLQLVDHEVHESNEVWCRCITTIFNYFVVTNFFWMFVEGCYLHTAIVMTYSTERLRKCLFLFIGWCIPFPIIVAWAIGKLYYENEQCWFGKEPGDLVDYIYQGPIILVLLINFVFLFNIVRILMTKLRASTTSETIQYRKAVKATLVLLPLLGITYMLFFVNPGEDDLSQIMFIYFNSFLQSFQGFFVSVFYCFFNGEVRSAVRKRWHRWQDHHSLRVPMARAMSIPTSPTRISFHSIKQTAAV
T6 sequence (P24387 whole entry): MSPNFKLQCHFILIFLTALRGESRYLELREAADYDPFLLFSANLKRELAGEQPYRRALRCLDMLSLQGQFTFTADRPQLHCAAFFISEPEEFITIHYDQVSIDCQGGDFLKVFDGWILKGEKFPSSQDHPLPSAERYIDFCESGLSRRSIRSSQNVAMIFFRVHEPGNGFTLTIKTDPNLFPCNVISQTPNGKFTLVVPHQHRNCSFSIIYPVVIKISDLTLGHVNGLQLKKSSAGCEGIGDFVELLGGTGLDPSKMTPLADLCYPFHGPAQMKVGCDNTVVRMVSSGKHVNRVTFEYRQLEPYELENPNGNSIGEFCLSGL

[29] = target: T6, Corticotropin-releasing factor receptor 2/Corticotropin-releasing factor-binding protein; assay: activators of CRF receptor 2 with binding protein – uHTS hits, confirmation (AID 602473); format: functional; settings: read-out: EC50_Mean
[30] = CRF-BP/CRF-R2 complex antagonists, dose response, cell-based, uHTS hits, 384-well (AID 651639); format: functional, Homo sapiens; settings: read-out: IC50_Mean

T5 sequence (P65502 whole entry): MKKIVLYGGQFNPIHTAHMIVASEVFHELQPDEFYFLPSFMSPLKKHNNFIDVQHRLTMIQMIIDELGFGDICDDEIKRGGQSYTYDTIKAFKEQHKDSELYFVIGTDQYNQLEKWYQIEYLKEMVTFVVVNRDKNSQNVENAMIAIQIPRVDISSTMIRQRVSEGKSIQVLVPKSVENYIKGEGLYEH
T2 sequence (Q9P0U3 whole entry, the tested form may be a part): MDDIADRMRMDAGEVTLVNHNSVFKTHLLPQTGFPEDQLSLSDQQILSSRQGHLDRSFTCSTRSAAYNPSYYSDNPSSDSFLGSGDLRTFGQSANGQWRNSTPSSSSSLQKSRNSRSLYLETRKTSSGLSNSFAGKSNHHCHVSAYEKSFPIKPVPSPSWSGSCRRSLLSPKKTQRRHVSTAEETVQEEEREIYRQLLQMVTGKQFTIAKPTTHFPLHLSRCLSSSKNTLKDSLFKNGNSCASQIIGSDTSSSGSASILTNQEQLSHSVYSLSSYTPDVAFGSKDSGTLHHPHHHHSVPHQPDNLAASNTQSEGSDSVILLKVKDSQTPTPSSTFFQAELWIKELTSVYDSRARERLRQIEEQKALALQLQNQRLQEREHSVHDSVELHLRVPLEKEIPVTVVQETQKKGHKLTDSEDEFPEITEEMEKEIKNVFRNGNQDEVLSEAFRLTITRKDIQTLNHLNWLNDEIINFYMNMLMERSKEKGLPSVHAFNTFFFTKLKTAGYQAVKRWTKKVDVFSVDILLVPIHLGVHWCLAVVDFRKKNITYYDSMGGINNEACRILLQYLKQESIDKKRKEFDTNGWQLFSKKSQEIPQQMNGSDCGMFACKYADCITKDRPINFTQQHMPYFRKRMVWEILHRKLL
T4 sequence (P08183 whole entry): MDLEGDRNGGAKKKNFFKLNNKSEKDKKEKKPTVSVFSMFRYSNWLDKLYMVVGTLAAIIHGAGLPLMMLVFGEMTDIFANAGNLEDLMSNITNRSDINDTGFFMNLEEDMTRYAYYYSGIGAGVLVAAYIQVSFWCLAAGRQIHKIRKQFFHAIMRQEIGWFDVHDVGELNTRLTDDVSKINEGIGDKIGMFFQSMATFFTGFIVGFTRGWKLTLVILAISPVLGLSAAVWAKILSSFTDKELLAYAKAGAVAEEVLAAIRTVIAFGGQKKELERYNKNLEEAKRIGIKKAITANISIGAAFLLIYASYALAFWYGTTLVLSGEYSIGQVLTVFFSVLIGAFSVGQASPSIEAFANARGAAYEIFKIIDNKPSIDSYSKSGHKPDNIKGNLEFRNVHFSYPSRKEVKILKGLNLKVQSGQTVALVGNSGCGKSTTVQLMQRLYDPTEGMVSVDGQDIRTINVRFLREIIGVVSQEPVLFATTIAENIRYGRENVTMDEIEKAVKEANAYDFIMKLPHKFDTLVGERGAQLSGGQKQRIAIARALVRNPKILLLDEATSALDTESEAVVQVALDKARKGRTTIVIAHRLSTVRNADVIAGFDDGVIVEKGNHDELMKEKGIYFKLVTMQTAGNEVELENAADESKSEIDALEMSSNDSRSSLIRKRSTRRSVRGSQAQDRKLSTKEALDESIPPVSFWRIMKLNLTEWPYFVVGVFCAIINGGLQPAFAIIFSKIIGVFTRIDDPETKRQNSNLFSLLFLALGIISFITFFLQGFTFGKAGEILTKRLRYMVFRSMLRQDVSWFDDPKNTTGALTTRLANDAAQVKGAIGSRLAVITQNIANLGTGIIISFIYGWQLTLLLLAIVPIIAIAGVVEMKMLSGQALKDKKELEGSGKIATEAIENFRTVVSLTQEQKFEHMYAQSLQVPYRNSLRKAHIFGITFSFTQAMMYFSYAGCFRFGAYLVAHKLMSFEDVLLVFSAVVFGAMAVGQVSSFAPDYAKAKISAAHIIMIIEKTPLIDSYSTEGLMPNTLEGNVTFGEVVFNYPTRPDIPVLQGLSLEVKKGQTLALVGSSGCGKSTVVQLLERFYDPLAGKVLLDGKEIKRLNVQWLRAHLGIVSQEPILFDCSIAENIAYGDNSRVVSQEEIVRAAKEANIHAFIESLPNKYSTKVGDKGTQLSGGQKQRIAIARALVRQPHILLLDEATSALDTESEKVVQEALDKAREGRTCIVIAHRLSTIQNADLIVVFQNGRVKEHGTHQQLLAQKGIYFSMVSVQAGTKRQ
Sequence of Mitogen-activated protein kinase 10 (P53779 whole entry): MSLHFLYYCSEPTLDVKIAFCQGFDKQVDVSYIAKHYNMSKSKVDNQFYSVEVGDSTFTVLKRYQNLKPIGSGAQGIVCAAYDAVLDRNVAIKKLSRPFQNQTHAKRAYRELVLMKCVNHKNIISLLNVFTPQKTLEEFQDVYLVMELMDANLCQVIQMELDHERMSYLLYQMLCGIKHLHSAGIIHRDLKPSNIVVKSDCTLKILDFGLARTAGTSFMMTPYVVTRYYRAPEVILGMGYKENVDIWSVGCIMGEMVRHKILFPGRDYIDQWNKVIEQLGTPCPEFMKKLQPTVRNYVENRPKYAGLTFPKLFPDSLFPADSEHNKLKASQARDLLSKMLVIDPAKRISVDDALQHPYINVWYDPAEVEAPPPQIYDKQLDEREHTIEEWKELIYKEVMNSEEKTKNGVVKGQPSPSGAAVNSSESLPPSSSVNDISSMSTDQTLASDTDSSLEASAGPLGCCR
Sequence of Nuclear receptor subfamily 5 group A member 2 (O00482 whole entry): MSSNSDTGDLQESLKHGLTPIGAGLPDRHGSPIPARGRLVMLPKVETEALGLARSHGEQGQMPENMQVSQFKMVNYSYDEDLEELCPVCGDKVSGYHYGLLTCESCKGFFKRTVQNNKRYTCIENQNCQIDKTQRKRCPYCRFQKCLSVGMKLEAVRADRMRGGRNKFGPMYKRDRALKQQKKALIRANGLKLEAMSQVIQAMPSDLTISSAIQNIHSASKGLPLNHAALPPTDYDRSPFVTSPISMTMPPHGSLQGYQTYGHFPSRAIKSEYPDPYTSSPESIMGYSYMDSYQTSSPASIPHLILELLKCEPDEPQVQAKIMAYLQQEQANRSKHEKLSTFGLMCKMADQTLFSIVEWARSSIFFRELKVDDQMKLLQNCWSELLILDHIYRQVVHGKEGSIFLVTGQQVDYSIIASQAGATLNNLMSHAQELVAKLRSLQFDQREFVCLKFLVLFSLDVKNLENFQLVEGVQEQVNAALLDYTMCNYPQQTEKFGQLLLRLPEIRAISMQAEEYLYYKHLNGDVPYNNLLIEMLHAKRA
Sequence of ADP-ribosylation factor GTPase-activating protein 1 (Q62848 whole entry): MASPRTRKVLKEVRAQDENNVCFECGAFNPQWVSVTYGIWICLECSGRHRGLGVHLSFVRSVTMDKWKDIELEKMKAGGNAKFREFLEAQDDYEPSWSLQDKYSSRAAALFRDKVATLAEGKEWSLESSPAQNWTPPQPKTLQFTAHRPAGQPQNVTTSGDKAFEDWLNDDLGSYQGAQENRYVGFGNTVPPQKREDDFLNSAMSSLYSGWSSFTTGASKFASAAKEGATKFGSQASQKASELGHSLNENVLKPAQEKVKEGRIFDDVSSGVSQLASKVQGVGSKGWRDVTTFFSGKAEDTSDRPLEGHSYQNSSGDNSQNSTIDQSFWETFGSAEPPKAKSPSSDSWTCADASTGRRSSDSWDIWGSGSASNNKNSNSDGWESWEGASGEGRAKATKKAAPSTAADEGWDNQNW
Sequence of Steroidogenic factor 1 (Q13285 whole entry): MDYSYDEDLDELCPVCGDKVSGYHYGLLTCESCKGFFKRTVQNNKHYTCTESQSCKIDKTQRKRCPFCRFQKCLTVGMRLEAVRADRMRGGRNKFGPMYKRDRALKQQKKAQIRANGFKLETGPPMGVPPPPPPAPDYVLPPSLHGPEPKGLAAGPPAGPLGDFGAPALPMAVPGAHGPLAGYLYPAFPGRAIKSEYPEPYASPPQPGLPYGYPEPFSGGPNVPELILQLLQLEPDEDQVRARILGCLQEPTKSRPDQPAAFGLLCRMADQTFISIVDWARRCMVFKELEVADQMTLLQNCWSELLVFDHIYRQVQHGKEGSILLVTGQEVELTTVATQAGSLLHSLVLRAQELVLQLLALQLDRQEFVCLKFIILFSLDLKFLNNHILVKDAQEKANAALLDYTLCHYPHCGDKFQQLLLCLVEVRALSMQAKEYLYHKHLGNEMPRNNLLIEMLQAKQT
Sequence of Beta Lactamase (Q932Y6 whole entry): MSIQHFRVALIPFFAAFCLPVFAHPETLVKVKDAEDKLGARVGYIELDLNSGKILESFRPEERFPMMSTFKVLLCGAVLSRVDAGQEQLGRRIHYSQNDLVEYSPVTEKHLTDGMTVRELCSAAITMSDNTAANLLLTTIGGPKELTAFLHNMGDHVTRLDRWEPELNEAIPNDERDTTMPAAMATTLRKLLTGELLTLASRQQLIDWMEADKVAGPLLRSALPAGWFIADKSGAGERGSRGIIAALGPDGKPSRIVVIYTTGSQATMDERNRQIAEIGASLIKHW

Cc1cc(=O)oc2cc(OCc3ccc(C(=O)OCC(=O)Nc4ccccc4OC(F)F)cc3)ccc12
IC50 [1]: 31.3 µM (inactive)

C=C1C(=O)C23CCC4C(C)(C(=O)OC)CCCC4(C)C2CCC1(O)C3 (stereo unspecified)
AC50 [2]: 1.27 µM (active) | AC50 [3]: 0.976 µM (active) | AC50 [4]: 5.71 µM (active) | AC50 [5]: 1.66 µM (active) | IC50 [6]: 1.36 µM (active) | IC50 [7]: 46.8 µM (inactive)

Oc1ccc(Br)cc1/C=N/Nc1ccccn1
EC50 [8]: 3.83 µM (inconclusive) | EC50 [9]: 6.83 µM (active) | EC50 [10]: 3.19 µM (active) | EC50 [11]: 1.51 µM (active) | EC50 [12]: 22.5 µM (active) | AC50 [2]: 1.32 µM (active) | AC50 [13]: 1.98 µM (active) | AbsAC35_uM [14]: 82.89 µM

C/C(=N\NC(=O)c1ccc(O)cc1)c1ccc2c(c1)Nc1ccccc1S2
CC50 [15]: 21.2 µM (active) | IC50 [16]: 7.06 µM (active) | IC50 [17]: 4.61 µM (active) | CC50 [18]: 86.9 µM (active) | IC50 [19]: 35.3 µM (active)

Cc1cc(N2CCN(C(=O)c3ccoc3)CC2)n2nc(-c3ccc(Br)cc3)cc2n1
EC50 [20]: 2.08 µM (active) | EC50 [21]: 11.2 µM (active)

Cc1nn(-c2ccccc2)c(N2CCCC2)c1/C=N/NC(=O)c1cccc(S(=O)(=O)Nc2ccc(Cl)cc2)c1
IC50 [22]: 8.05 µM (active) | IC50 [23]: 28.9 µM (active)

O=C(NCc1cccnc1)c1cccc2c1C(=O)N(C1CCCCC1)C2
IC50 [24]: 27.4 µM (not active) | IC50 [25]: 17.8 µM (inactive) | IC50 [26]: 3.71 µM (active) | IC50 [27]: 35.9 µM (inactive)

COc1cccc(C2CC(c3cccs3)=NN2C(=O)c2ccco2)c1O (stereo unspecified)
IC50 [28]: 5.3 µM (active) | EC50 [29]: > 53 µM (inactive) | IC50 [30]: 1.51 µM (active)
